Data: article PMC2529273, “Pharmacological Properties of DOV 315,090, an ocinaplon metabolite” (BMC Pharmacology, 2008)
“And” between values parts separate entries of the source, which are not always exact repeats. Identical values can stand only once. Like-named read-outs stand apart in the source and are kept apart here.

Tests used:
in vivo = assay type: in vivo, rat; settings: rats, 1 h after administration of ocinaplon 5 mg/kg
Protocol: At 1 h, corresponding to the time at which the anticonflict effect of ocinaplon was evaluated, the plasma concentration of DOV 315,090 is ~38% of the concentration of parent compound.
Figure 2 Pharmacokinetics of ocinaplon and DOV 315,090. Blood levels of ocinaplon (●,○) and DOV 315090 (▲,△) were determined at various times after i.v. (●,▲) or oral (○,△) administration of 5 mg/kg ocinaplon to rats. […] This animal may have regurgitated a portion of the dose (of the suspension).

α5β2γ2S GABAA-R [1] = molecular target: T1, α5β2γ2S GABAA-R (Rattus norvegicus, UniProt P18508+P19969); experiment: cell-based
Protocol: (§1) cRNAs encoding GABAA-R α1, α2, α3, α5, β2 and γ2S subunits were injected into oocytes from Xenopus laevis. […] GABA (Sigma) was prepared as a 1 M stock solution in ND96. Microelectrodes of 1–3 MΩ when filled with 3 M KCl were used to record from oocytes in a recording chamber continuously perfused with ND-96 buffer solution. During data acquisition, oocytes were clamped at a holding potential of -70 mV. Drugs were applied by perfusion at a rate of approximately 50 μl sec^-1 for 20 s followed by a 120 s wash. […] All experiments were performed at room temperature (22–24°C).
(§2) GABA concentration-response data was obtained for each subunit combination, and the GABA EC10 was determined by nonlinear regression using the logistic equation. This concentration of GABA was used for modulation studies. Peak current measurements were normalized and expressed as a fraction of the peak control current measurements. Control responses to an EC10 concentration of GABA were re-determined after every 2 – 4 applications of modulator + GABA. […] Potentiation data from each oocyte was fitted to the equation Potentiation = Emax × [Drug]/([Drug + EC50) by non-linear regression (Prism, Graph-Pad software). […] Given the lack of consistency of this possible high affinity effect, we have omitted it in fitting our concentration-effect curves. The choice of fitting to a monophasic or biphasic equation had only a small effect on the EC50 for the major component of modulation.
(§3) Rat GABAA-Rs consisting of α1β2γ2S, α2β2γ2S, α3β2γ2S and α5β2γ2S subunits were expressed in Xenopus oocytes. […] Higher concentrations (in parentheses) were excluded from the fit due to a decline in potentiation at higher concentrations.

α2β2γ2S GABAA-R [2] = molecular target: T2, α2β2γ2S GABAA-R (Rattus norvegicus, UniProt P18508+P23576); experiment: cell-based
Protocol: as §1, §2, §3

α1β2γ2S GABAA-R [3] = molecular target: T3, α1β2γ2S GABAA-R (Rattus norvegicus, UniProt P18508+P62813); experiment: cell-based
Protocol: as §1, §2, §3

α3β2γ2S GABAA-R [4] = molecular target: T4, α3β2γ2S GABAA-R (Rattus norvegicus, UniProt P18508+P20236); experiment: cell-based; assay type: cell-based
Protocol: as §1, §2, §3

α5β2γ2S GABAA-R [5] = molecular target: T1, α5β2γ2S GABAA-R; experiment: biochemical; assay type: binding
Protocol: (§4) HEK293 cells (CRL 1573, American type Culture Collection, Rockville, MD, USA) were cultured in Dulbecco's modified Eagle's medium (D-MEM, Invitrogen, Carlsbad, CA, USA) supplemented with 10% fetal bovine serum (Invitrogen, Carlsbad, CA, USA) and 1% MEM Non-Essential Amino Acids Solution (Invitrogen, Carlsbad, CA, USA). cDNAs encoding rat GABAA-R subunits were in the following vectors: α1 and α5 in pRc/CMV, α2, α3, γ2S and γ3 in pcDNA3 and β2 in pcDNA1. The cells were transiently transfected (5 μg of each cDNA per 100 mm dish) using FuGene™ (Roche Diagnostics Corporation) at a 3:1 FuGene:DNA ratio. […] Forty-eight hours after transfection, cells were washed with ice-cold PBS, harvested and homogenized. Cell homogenates were centrifuged (100,000 g, 25 min) and washed three times by homogenization in ice-cold PBS buffer followed by centrifugation at 100,000 g for 25 min. The final pellets were stored at -20°C until needed.
(§5) The samples were then diluted with 5 ml of ice-cold buffer and filtered under vacuum through glass-fiber filters (GF/B Whatman). Filters were washed 3 times with 5 ml of buffer and the radioactivity was quantitated by liquid scintillation counting in 5 ml of Ecolite scintillation fluid (ICN). Non-specific binding determined in the presence of 100 μM Ro 15–1788 (Sigma-Aldrich) was subtracted from total binding to calculate specific binding. Data were analyzed by non-linear regression (Prism, Graph-Pad software).

α1β2γ3 GABAA-R = molecular target: T5, α1β2γ3 GABAA-R (Rattus norvegicus, UniProt P28473+P62813); experiment: biochemical; assay type: binding
T5 construct: expressed in transfected cells; host or cells: HEK293 (CRL 1573), transient transfection
Protocol: as §4, §5

α3β2γ2S GABAA-R [6] = molecular target: T4, α3β2γ2S GABAA-R; experiment: biochemical; assay type: binding
Protocol: as §4, §5

α5β2γ3 GABAA-R = molecular target: T6, α5β2γ3 GABAA-R (Rattus norvegicus, UniProt P19969+P28473); experiment: biochemical; assay type: binding
T6 construct: expressed in transfected cells; host or cells: HEK293 (CRL 1573), transient transfection
Protocol: as §4, §5

α2β2γ3 GABAA-R = molecular target: T7, α2β2γ3 GABAA-R (Rattus norvegicus, UniProt P23576+P28473); experiment: biochemical; assay type: binding
T7 construct: expressed in transfected cells; host or cells: HEK293 (CRL 1573), transient transfection
Protocol: as §4, §5

α2β2γ2S GABAA-R [7] = molecular target: T2, α2β2γ2S GABAA-R; experiment: biochemical; assay type: binding
Protocol: as §4, §5

α1β2γ2S GABAA-R [8] = molecular target: T3, α1β2γ2S GABAA-R; experiment: biochemical; assay type: binding
Protocol: as §4, §5

[9] = [3H]Ro15-1788 displacement, n = 3, read-out: IC50
[10] = mean ± SEM, n = 3, read-out: pIC50 (converted)

T3 sequence (P62813 28-455): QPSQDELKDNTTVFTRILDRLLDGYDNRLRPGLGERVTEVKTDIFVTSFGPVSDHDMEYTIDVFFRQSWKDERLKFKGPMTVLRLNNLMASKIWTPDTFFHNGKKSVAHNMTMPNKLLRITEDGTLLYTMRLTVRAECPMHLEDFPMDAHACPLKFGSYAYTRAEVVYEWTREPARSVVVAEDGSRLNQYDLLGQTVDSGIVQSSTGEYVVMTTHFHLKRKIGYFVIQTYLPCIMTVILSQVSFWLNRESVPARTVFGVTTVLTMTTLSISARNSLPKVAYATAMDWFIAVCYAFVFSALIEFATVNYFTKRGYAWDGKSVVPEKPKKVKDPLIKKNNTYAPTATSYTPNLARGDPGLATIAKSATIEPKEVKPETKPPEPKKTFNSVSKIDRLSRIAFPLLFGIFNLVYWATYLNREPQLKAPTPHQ
T3 sequence (P63138 25-474 partner limits assumed): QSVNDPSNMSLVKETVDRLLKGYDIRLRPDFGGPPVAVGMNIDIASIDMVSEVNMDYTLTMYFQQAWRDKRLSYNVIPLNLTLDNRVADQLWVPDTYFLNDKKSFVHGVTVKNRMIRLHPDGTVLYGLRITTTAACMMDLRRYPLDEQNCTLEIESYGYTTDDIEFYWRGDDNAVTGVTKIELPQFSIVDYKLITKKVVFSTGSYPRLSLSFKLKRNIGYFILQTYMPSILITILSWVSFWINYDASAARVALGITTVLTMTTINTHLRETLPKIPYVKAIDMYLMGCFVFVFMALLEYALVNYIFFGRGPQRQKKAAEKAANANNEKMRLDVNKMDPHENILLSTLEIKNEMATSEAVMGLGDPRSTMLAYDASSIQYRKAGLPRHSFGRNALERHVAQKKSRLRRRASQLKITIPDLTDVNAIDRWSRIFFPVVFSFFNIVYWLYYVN
T3 sequence (P18508 39-466): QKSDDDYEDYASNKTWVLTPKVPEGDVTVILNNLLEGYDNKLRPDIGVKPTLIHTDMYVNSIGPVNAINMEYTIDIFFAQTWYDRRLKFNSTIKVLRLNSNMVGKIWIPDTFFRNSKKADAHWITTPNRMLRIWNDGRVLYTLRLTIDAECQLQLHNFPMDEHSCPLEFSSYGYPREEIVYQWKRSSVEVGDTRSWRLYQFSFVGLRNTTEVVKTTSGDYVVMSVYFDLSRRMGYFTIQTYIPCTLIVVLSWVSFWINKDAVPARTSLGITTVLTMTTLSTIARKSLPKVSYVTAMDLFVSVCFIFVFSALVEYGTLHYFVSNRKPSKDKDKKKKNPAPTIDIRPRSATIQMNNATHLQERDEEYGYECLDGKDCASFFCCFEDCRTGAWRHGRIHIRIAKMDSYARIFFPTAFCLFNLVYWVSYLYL
T5 sequence (P62813 28-455): as the sequence (P62813 28-455) above
T5 sequence (P63138 25-474 partner limits assumed): as the sequence (P63138 25-474 partner limits assumed) above
T5 sequence (P28473 18-467): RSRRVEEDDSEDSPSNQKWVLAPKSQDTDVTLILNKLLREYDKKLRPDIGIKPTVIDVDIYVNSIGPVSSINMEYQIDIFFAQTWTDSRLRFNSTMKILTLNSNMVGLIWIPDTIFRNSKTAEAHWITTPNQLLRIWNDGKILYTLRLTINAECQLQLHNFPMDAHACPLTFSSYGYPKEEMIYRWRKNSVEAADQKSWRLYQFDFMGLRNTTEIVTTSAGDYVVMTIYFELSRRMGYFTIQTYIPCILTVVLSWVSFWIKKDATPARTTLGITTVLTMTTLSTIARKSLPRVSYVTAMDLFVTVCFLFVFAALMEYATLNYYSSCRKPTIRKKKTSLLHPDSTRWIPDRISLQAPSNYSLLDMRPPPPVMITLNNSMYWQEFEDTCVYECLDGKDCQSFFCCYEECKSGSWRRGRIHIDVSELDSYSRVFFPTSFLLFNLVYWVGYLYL
T4 sequence (P20236 29-493): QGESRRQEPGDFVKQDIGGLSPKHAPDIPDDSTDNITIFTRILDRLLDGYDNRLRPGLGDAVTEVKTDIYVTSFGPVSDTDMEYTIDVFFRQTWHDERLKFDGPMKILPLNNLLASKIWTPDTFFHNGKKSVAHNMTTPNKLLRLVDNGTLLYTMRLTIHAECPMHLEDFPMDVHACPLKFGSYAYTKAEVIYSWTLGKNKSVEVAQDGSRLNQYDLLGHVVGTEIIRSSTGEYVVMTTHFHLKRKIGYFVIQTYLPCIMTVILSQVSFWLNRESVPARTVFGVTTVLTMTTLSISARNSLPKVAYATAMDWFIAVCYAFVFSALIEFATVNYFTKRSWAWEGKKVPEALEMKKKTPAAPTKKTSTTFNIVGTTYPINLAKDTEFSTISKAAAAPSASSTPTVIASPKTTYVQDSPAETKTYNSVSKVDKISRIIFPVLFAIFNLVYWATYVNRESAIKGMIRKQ
T4 sequence (P63138 25-474 partner limits assumed): as the sequence (P63138 25-474 partner limits assumed) above
T4 sequence (P18508 39-466): as the sequence (P18508 39-466) above
T2 sequence (P23576 29-451): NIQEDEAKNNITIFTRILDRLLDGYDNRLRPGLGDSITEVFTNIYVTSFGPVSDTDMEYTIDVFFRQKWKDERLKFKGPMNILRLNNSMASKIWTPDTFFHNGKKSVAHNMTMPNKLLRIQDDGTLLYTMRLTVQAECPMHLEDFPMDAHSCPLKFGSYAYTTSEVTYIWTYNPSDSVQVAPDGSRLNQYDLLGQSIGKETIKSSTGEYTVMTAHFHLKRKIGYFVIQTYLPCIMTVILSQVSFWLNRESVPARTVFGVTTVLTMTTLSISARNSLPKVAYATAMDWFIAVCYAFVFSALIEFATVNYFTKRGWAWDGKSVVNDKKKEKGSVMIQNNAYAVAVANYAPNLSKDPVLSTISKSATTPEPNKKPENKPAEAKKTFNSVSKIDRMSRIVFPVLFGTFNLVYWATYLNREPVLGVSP
T2 sequence (P63138 25-474 partner limits assumed): as the sequence (P63138 25-474 partner limits assumed) above
T2 sequence (P18508 39-466): as the sequence (P18508 39-466) above
T7 sequence (P23576 29-451): as the sequence (P23576 29-451) above
T7 sequence (P63138 25-474 partner limits assumed): as the sequence (P63138 25-474 partner limits assumed) above
T7 sequence (P28473 18-467): as the sequence (P28473 18-467) above
T6 sequence (P19969 32-464 limits assumed): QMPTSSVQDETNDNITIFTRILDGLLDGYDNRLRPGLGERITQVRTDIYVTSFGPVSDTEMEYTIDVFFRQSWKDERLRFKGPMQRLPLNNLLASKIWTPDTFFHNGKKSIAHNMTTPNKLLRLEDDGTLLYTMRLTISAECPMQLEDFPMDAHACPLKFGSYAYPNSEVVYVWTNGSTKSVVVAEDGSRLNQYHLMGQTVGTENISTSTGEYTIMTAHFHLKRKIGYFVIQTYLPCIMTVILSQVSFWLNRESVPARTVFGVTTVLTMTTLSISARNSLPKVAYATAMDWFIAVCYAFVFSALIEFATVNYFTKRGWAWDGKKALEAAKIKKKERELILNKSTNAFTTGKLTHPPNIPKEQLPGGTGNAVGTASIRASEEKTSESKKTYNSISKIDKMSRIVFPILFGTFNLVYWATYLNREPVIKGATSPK
T6 sequence (P63138 25-474 partner limits assumed): as the sequence (P63138 25-474 partner limits assumed) above
T6 sequence (P28473 18-467): as the sequence (P28473 18-467) above
T1 sequence (P19969 32-464 limits assumed): as the sequence (P19969 32-464 limits assumed) above
T1 sequence (P63138 25-474 partner limits assumed): as the sequence (P63138 25-474 partner limits assumed) above
T1 sequence (P18508 39-466): as the sequence (P18508 39-466) above

For `O=C(c1ccccn1)c1cnn2c(-c3cc[n+]([O-])cc3)ccnc12` [DOV 315,090, (7-(1-Oxidopyridin-1-ium-4-yl)pyrazolo [1,5-a]pyrimidin-3-yl)(pyridin-2-yl)methanone], the “plasma concentration as % of the concentration of parent compound (ocinaplon)” value (in vivo) was ~ 38% and 38%, the Emax (α5β2γ2S GABAA-R [1]) was 68 ± 8% and the EC50 (α5β2γ2S GABAA-R [1]; α5β2γ2S, GABA EC10, mean ± SEM, read-out: pEC50 (converted)) was 9.33 µM. The EC50 (α5β2γ2S GABAA-R [1]; α5β2γ2S, GABA EC10, number of oocytes in parentheses, read-out: EC50) was 10.1 µM, the “EC50/DZ EC50” value (α5β2γ2S GABAA-R [1]; α5β2γ2S, ratio to diazepam EC50) was 405 and the “Emax/DZ Emax” value (α5β2γ2S GABAA-R [1]; α5β2γ2S, ratio to diazepam Emax) was 0.30. The “EC50/OC EC50” value (α5β2γ2S GABAA-R [1]; α5β2γ2S, ratio to ocinaplon EC50) was 2.92, the “Emax/OC Emax” value (α5β2γ2S GABAA-R [1]; α5β2γ2S, ratio to ocinaplon Emax) was 0.81 and the Emax (α2β2γ2S GABAA-R [2]) was 139 ± 23%. For the same compound, the EC50 (α2β2γ2S GABAA-R [2]; α2β2γ2S, GABA EC10, mean ± SEM, read-out: pEC50 (converted)) was 12 µM, the EC50 (α2β2γ2S GABAA-R [2]; α2β2γ2S, GABA EC10, number of oocytes in parentheses, read-out: EC50) was 12.5 µM and the “EC50/DZ EC50” value (α2β2γ2S GABAA-R [2]; α2β2γ2S, ratio to diazepam EC50) was 482. The “Emax/DZ Emax” value (α2β2γ2S GABAA-R [2]; α2β2γ2S, ratio to diazepam Emax) was 0.88, the “EC50/OC EC50” value (α2β2γ2S GABAA-R [2]; α2β2γ2S, ratio to ocinaplon EC50) was 1.37 and the “Emax/OC Emax” value (α2β2γ2S GABAA-R [2]; α2β2γ2S, ratio to ocinaplon Emax) was 0.92. For the same compound, the Emax (α1β2γ2S GABAA-R [3]) was 192 ± 4%, the EC50 (α1β2γ2S GABAA-R [3]; α1β2γ2S, GABA EC10, number of oocytes in parentheses, read-out: EC50) was 4.87 µM and the “EC50/DZ EC50” value (α1β2γ2S GABAA-R [3]; α1β2γ2S, ratio to diazepam EC50) was 128. The “Emax/DZ Emax” value (α1β2γ2S GABAA-R [3]; α1β2γ2S, ratio to diazepam Emax) was 1.33, the “EC50/OC EC50” value (α1β2γ2S GABAA-R [3]; α1β2γ2S, ratio to ocinaplon EC50) was 1.66 and the “Emax/OC Emax” value (α1β2γ2S GABAA-R [3]; α1β2γ2S, ratio to ocinaplon Emax) was 1.45. It also gave an Emax (α3β2γ2S GABAA-R [4]) of 340 ± 35%, an EC50 (α3β2γ2S GABAA-R [4]; α3β2γ2S, GABA EC10, mean ± SEM, read-out: pEC50 (converted)) of 10 µM and an EC50 (α3β2γ2S GABAA-R [4]; α3β2γ2S, GABA EC10, number of oocytes in parentheses, read-out: EC50) of 10.2 µM. The “EC50/DZ EC50” value (α3β2γ2S GABAA-R [4]; α3β2γ2S, ratio to diazepam EC50) was 111, the “Emax/DZ Emax” value (α3β2γ2S GABAA-R [4]; α3β2γ2S, ratio to diazepam Emax) was 1.46 and the “EC50/OC EC50” value (α3β2γ2S GABAA-R [4]; α3β2γ2S, ratio to ocinaplon EC50) was 1.27. For the same compound, the “Emax/OC Emax” value (α3β2γ2S GABAA-R [4]; α3β2γ2S, ratio to ocinaplon Emax) was about 1.87, the IC50 (α5β2γ2S GABAA-R [5]; [9]) was 22 µM and the IC50 (α5β2γ2S GABAA-R [5]; [10]) was 21.4 µM. For the same compound, the “IC50/DZ IC50” value (α5β2γ2S GABAA-R [5]; ratio to diazepam IC50) was 790, the “IC50/OC IC50” value (α5β2γ2S GABAA-R [5]; ratio to ocinaplon IC50) was 2.24 and the IC50 (α1β2γ3 GABAA-R; [3H]Ro15-1788 displacement, α1β2γ3, n = 3, read-out: IC50) was 5.5 µM. The IC50 (α1β2γ3 GABAA-R; α1β2γ3, mean ± SEM, n = 3, read-out: pIC50 (converted)) was 5.37 µM, the “IC50/DZ IC50” value (α1β2γ3 GABAA-R; α1β2γ3, ratio to diazepam IC50) was 25 and the “IC50/OC IC50” value (α1β2γ3 GABAA-R; α1β2γ3, ratio to ocinaplon IC50) was 2.40. The IC50 (α3β2γ2S GABAA-R [6]; [9]) was 9.3 µM, the IC50 (α3β2γ2S GABAA-R [6]; [10]) was 8.32 µM and the “IC50/DZ IC50” value (α3β2γ2S GABAA-R [6]; ratio to diazepam IC50) was 170. For the same compound, the “IC50/OC IC50” value (α3β2γ2S GABAA-R [6]; ratio to ocinaplon IC50) was 1.09, the IC50 (α5β2γ3 GABAA-R; [3H]Ro15-1788 displacement, α5β2γ3, n = 3, read-out: IC50) was 27 µM and the IC50 (α5β2γ3 GABAA-R; α5β2γ3, mean ± SEM, n = 3, read-out: pIC50 (converted)) was 26.3 µM. For the same compound, the “IC50/DZ IC50” value (α5β2γ3 GABAA-R; α5β2γ3, ratio to diazepam IC50) was 323, the “IC50/OC IC50” value (α5β2γ3 GABAA-R; α5β2γ3, ratio to ocinaplon IC50) was 2.59 and the IC50 (α2β2γ3 GABAA-R; [3H]Ro15-1788 displacement, α2β2γ3, n = 3, read-out: IC50) was 20 µM. The IC50 (α2β2γ3 GABAA-R; α2β2γ3, mean ± SEM, n = 3, read-out: pIC50 (converted)) was 19.1 µM, the “IC50/DZ IC50” value (α2β2γ3 GABAA-R; α2β2γ3, ratio to diazepam IC50) was 120 and the “IC50/OC IC50” value (α2β2γ3 GABAA-R; α2β2γ3, ratio to ocinaplon IC50) was 0.98. The IC50 (α2β2γ2S GABAA-R [7]; [9]) was 24 µM, the IC50 (α2β2γ2S GABAA-R [7]; [10]) was 23.4 µM and the “IC50/DZ IC50” value (α2β2γ2S GABAA-R [7]; ratio to diazepam IC50) was 760. For the same compound, the “IC50/OC IC50” value (α2β2γ2S GABAA-R [7]; ratio to ocinaplon IC50) was 0.89, the IC50 (α1β2γ2S GABAA-R [8]; [9]) was 7 µM and the IC50 (α1β2γ2S GABAA-R [8]; [10]) was 6.46 µM. The “IC50/DZ IC50” value (α1β2γ2S GABAA-R [8]; ratio to diazepam IC50) was 220 and the “IC50/OC IC50” value (α1β2γ2S GABAA-R [8]; ratio to ocinaplon IC50) was 1.02.
